Test results: patent US12209080B2, “Polymorphic forms of kinase inhibitor compound, pharmaceutical composition containing same, preparation method therefor and use thereof” (EQUINOX SCIENCES, LLC, priority 2016, dated 2025)

Assays:
[1] = Moisture-induced crystallization experiment (XRD); type: physicochemical; conditions: room temperature, 58-97% RH, up to 10 days
Procedure: About 10 mg of the crystalline form 1 was taken and placed in the corresponding environment, and the solid was detection by XRD at different time.

[2] = Pharmacokinetic experiment, oral administration; type: in vivo, Sprague Dawley rats; conditions: rat, oral 10 mg/kg; for AUC(0-t) / Cmax: suspension in 0.5% CMC, 10 mg/kg
Procedure: Twelve Sprague Dawley rats with weight of 230-250 g were randomly divided into 2 groups, wherein each group consisted of 3 males and 3 females. Crystalline forms 1 and 2 were separately prepared as suspensions in 0.5% carboxymethylcellulose (CMC). The rats were fasted for 12 hours with free access to water and then orally administered at a dose of 10 mg/kg. Blood samples (0.2-0.3 ml) before and after 15, 30, 60, 120, 240, 360, 480, 720, 1440 minutes of the oral administration were collected in heparin anticoagulation tubes, which were then centrifuged to obtain plasma. The plasma was stored at −20° C., followed by analysis using API 4000 MS in conjunction with a HPLC unit. The pharmacokinetic parameters Cmax and AUC were calculated according to the determined plasma concentrations and summarized in Table 22.

- stability under humidity conditions (overall) [1]: stable
- Cmax relative to crystalline form 2 [2]: about 4 times
- exposure (AUC) relative to crystalline form 2 [2]: about 3 times
- AUC(0-t) ([2]; average value): 10488.3 ng·h/mL
- Cmax ([2]; average value): 1340.3 ng/mL
- AUC(0-t) ([2]; female 1): 3536.6 ng·h/mL
- Cmax ([2]; female 1): 593.9 ng/mL
- AUC(0-t) ([2]; female 2): 28571.4 ng·h/mL
- Cmax ([2]; female 2): 2649.0 ng/mL
- AUC(0-t) ([2]; female 3): 16634.2 ng·h/mL
- Cmax ([2]; female 3): 2033.3 ng/mL
- AUC(0-t) ([2]; male 1): 3180.0 ng·h/mL
- Cmax ([2]; male 1): 716.6 ng/mL
- AUC(0-t) ([2]; male 2): 6766.0 ng·h/mL
- Cmax ([2]; male 2): 1071.3 ng/mL
- AUC(0-t) ([2]; male 3): 4241.5 ng·h/mL
- Cmax ([2]; male 3): 977.7 ng/mL
SMILES: Cc1[nH]c(/C=C2\C(=O)Nc3ccc(F)cc32)c(C)c1C(=O)N[C@H]1CCN(C(=O)N(C)C)C1 [crystalline form 1, 5-[5-fluoro-2-oxo-1,2-dihydro-indole-(3Z)-ylidenemethyl]-2,4-dimethyl-1H-pyrrole-3-carboxylic acid ((S)-1-dimethylcarbamoyl-pyrrolidin-3-yl)-amide]
